Results from US20120156216A1, “Methods and Compositions for Treatment of Tumor Metastasis” (priority 2009, published 2012).

Key:
[1] = system: CTGF and fibronectin in normal immortalized human lung fibroblasts; test: Basal and TGF-β1-induced CTGF and fibronectin expression in stromal fibroblasts; assay type: cell-based
[2] = system: EMT markers in M12 prostate cancer cells; test: CTGF-induced (AdCTGF) EMT marker expression in M12 prostate cancer cells, RT-PCR and Western immunoblot; assay type: cell-based, human
From the text: In order to identify direct effect of CTGF on EMT induction in human cancer, an adenoviral expression vector was used. M12 (FIGS. 5 A-B) and M2182 (FIGS. 5 C-D) prostate cancer cells were infected with either an empty adenoviral constructs or an adenoviral vector expressing CTGF (AdCTGF) for either 18 hrs or 2 days to collect total RNAs for RT-PCR (FIGS. 5 A and C) and proteins for Western immunoblot analysis (FIGS. 5 B and D), respectively.
M12 (FIGS. 6 A-B) and M2182 (FIGS. 6 C-D) prostate cancer cells were infected with either an empty adenoviral construct (ADEV) or an adenoviral vector expressing CTGF (AdCTGF) for either 18 hrs or 2 days to collect total RNAs for RT-PCR (FIGS. 5 A and C) or proteins for Western immunoblot analysis (FIGS. 5 B and D), respectively.

[3] = system: CTGF in M12 prostate cancer cells; test: Suppression of endogenous CTGF by statins in M12 prostate cancer cells; assay type: cell-based, human; settings: 1 μM, four days, FIG. 3A
From the text: The effect of statins on the TGF-β- and CTGF-induced EMT in prostate cancer cells was further tested. Several stains are available with different pharmacokinetics and biotransformation rates. […] The hydrophilic statins are absorbed preferentially by the liver, where they inhibit production of cholesterol. More lipophilic statins are readily distributed to sites beyond the liver, where they inhibit intracellular synthesis of cholesterol. These different pharmacokinetic properties of statins may greatly influence effectiveness against advanced prostate cancer in vivo.

[4] = system: CTGF in MDA 231 breast cancer cells; test: Suppression of endogenous CTGF by statins in MDA 231 breast cancer cells; assay type: cell-based, human; settings: 1 μM, four days, FIG. 3B
[5] = general statement on statins; cited from earlier work
[6] = system: radiation-induced CTGF in M12 prostate cancer cells; test: Radiation-induced CTGF expression in M12 prostate cancer cells; assay type: cell-based, human; settings: 1 μM, four days, FIG. 9A
From the text: In an effort to determine the mechanism of radiation-induced adverse effects, such as radio-resistance and increased potential of metastasis in human cancer, M12 prostate cancer cells and BEAS-2B-CSC lung cancer cells were exposed to increasing amounts of radiation, ranging from 0 to 10 Grays (Gy). To detect protein expression for CTGF and CTGF-regulated protein fibronectin, M12 and BEAS-2B-CSC cells were harvested 3 days after irradiation, and culture media (CM) and cell lysates (CL) were separated by SDS-PAGE. Western immunoblotting was performed with antibodies specific for CTGF, fibronectin, and α-tubulin. […] As a control for protein loading, α-tubulin expression was also determined.
The ability of statins to inhibit radiation-induced CTGF expression was assessed in M12 prostate cancer cells and BEAS-2B-CSC lung cancer cells.

[7] = stromal cells treated with TGF-β1 0 ng/ml to 25 ng/ml, 3 days, Western immunoblot, FIG. 4A

CCC(C)(C)C(=O)O[C@H]1C[C@@H](C)C=C2C=C[C@H](C)[C@H](CC[C@@H]3C[C@@H](O)CC(=O)O3)[C@H]21 [simvastatin, 2,2-dimethyl-butanoic acid (1S,3R,7S,8S,8aR)-1,2,3,7,8,8a-hexahydro-3,7-dimethyl-8-[2-[(2R,4R)-tetrahydro-4-hydroxy-6-oxo-2H-pyran-2-yl]ethyl]-1-naphthalenyl ester]
basal CTGF expression ([1]; stromal fibroblasts, simvastatin 0.1 μM to 2.0 μM, 20 hours, semi-quantitative RT-PCR, FIG. 4B): suppression
epithelial marker E-cadherin expression ([2]; M12 cells, AdCTGF, 5 μM simvastatin, mRNA level and protein level, FIGS. 6 A-B): increase
adenoviral transduced IGFBP-rP2/CTGF expression ([2]; prostate cancer cells, simvastatin at concentrations, 2 μM, 4 μM, 5 μM): did not affect
suppression of CTGF [3]: significant suppression
suppression of CTGF [4]: significant suppression

CCC(C)C(=O)OC1CCC=C2C=C[C@H](C)[C@H](CC[C@@H]3CC(O)CC(=O)O3)[C@H]21 (stereo partly drawn) [mevastatin, ((1S,7S,8S,8aR)-8-{2-[(2R,4R)-4-hydroxy-6-oxotetrahydro-2H-pyran-2-yl]ethyl}-7-methyl-1,2,3,7,8,8a-hexahydronaphthalen-1-yl (2S)-2-methylbutanoate);]
solubility (fat soluble or water soluble) [5]: more water soluble

TGF-β1: transforming growth factor beta, potent inducer of CTGF, used to treat stromal fibroblasts
production of CTGF ([1]; TGF-β1 at 10 ng/ml, FIG. 4A): robust production
expression of CTGF [1, 7]: significantly increased
expression of fibronectin [1, 7]: significantly increased

CC[C@H](C)C(=O)O[C@H]1C[C@H](O)C=C2C=C[C@H](C)[C@H](CC[C@@H](O)C[C@@H](O)CC(=O)O)[C@H]21 [pravastatin]
solubility (fat soluble or water soluble) [5]: more water soluble
suppression of CTGF [3]: significant suppression
suppression of radiation-induced CTGF expression [6]: significant suppression
suppression of CTGF [4]: significant suppression

CC(C)n1c(/C=C/[C@@H](O)C[C@@H](O)CC(=O)O)c(-c2ccc(F)cc2)c2ccccc21 (relative stereo) [fluvastatin, (3R,5S,6E)-rel-7-[3-(4-fluorophenyl)-1-(1-methylethyl)-1H-indol-2-yl]-3,5--dihydroxy-6-heptenoic acid]
solubility (fat soluble or water soluble) [5]: more fat soluble

CC[C@H](C)C(=O)O[C@H]1C[C@@H](C)C=C2C=C[C@H](C)[C@H](CC[C@@H]3C[C@@H](O)CC(=O)O3)[C@H]21 [lovastatin, 2(S)-2-methyl-butanoic acid (1S,3R,7S,8S,8aR)-1,2,3,7,8,8a-hexahydro-3,7-dimethyl-8-[2-[(2R,4R)-tetrahydro-4-hydroxy-6-oxo-2H-pyran-2-yl]ethyl]-1-na-phthalenyl ester]
solubility (fat soluble or water soluble) [5]: more fat soluble
suppression of CTGF [3]: significant suppression
suppression of radiation-induced CTGF expression [6]: significant suppression
suppression of CTGF [4]: significant suppression
